We go through two molecules from patent US20070186301A1, “Mutant BDNF gene introducing knockin mouse” (NATIONAL INSTITUTE OF ADVANCED INDUSTRIAL SCIENCE AND …, priority 2006, published 2007).

Entries after “also recorded” stand apart in the source; their conditions may differ.

Assay [1] has as its system wild type mice. Description: Open field (circular field) quantity of activity after etizolam, wild type mice. The assay is classed as in vivo, mouse. As to conditions: wild type mice aged 4 to 5 weeks; etizolam solution 0.5 mg/kg intraperitoneally; measured from 5 minutes after administration; p<0.05. The method, then: (§1) The abnormal behavior in the mutant BDNF gene-knockin mouse was quantitatively analyzed. An emotional change of the mouse is reflected to the quantity of activity and a behavioral pattern of the mouse when the mouse is placed in a novel environment. The mouse was placed in the novel environment which was an inexperienced circular field (a diameter of 50 cm and a wall height of 40 cm in the field) for 25 to 30 minutes, and the quantity of activity in the meantime was compared between the wild type homozygous mice (wild) and the knockin homozygous mice (mutants). The mouse was placed 30 minutes before the experiment in a room in which the circular field had been disposed, and placed calmly in the circular field using a paper box. The activity of the mouse in the circular field was measured by recording using DV-Track video tracking system supplied from Muromachi Kikai.
(§2) Etizolam is a short term action type GABA, a neurotransmission accelerator (reference: Elder C. A. et al.: Drug Metab. Dispos., vol. 23, 776, 1995). […] A protocol was comprising (I) measuring the total quantity of activity in the mouse for 30 minutes after being placed in the open field, (II) intraperitoneally administering PBS or the etizolam solution (0.5 mg/kg) and (III) returning the mouse in the open field after 5 minutes and measuring the quantity of activity for 30 minutes in the mouse. […]

Assay [2] concerns mutant BDNF gene-knockin mice. Description: Open field (circular field) quantity of activity after etizolam, mutant mice. The assay is classed as in vivo, mouse. As to conditions: mutant mice aged 4 to 5 weeks; etizolam solution 0.5 mg/kg intraperitoneally; measured from 5 minutes after administration; p<0.001. The method, then: as §1, §2
Assay [3] deals with cerebellar granular nerve cells. The experiment in a line: Harmful action of non-cleavable proBDNF derivative on cerebellar granular nerve cells. The assay is classed as cell-based.
In assay [4] the test system is cholinergic nerve cells. Description: Harmful action of non-cleavable proBDNF derivative on cholinergic nerve cells. The assay is classed as cell-based.

Regarding `CCc1cc2c(s1)-n1c(C)nnc1CN=C2c1ccccc1Cl` [etizolam], the “effect on quantity of activity for 30 minutes in the open field” value in assay [1] was “certainly effective”. Moreover, in assay [2], the “effect on abnormal behavior (total behavioral distance / quantity of activity for 30 minutes in the open field)” value is given as “inhibitory effect; also recorded: remarkably inhibited”.

B1: BDNF-ML: non-cleavable human proBDNF derivative protein with R125M and R127L, SEQ ID NO:2 (protein)
chain: MTILFLTMVISYFGCMKAAPMKEANIRGQGGLAYPGVRTHGTLESVNGPKAGSRGLTSLADTFEHVIEELLDEDQKVRPNEENNKDADLYTSRVMLSSQVPLEPPLLFLLEEYKNYLDAANMSMMVLRHSDPARRGELSVCDSISEWVTAADKKTAVDMSGGTVTVLEKVPVSKGQLKQYFYETKCNPMGYTKEGCRGIDKRHWNSQCRTTQSYVRALTMDSKKRIGWRFIRIDTSCVCTLTIKRGR
modifications: Non-cleavable human proBDNF mutant
For the molecule B1, the “action on cell death of cerebellar granular nerve cells” value in assay [3] is “facilitation of cell death”. Besides, the “action on fibers in cholinergic nerve cells” value in assay [4] is reported as “facilitation of dropout of fibers”.
